Assay results from article PMC7503225, “Repositioning Dequalinium as Potent Muscarinic Allosteric Ligand by Combining Virtual Screening Campaigns and Experimental Binding Assays” (International Journal of Molecular Sciences, 2020).

How the values were obtained:
hM1 muscarinic receptor = molecular target: T1, hM1 muscarinic receptor (Homo sapiens, UniProt P11229); assay: Equilibrium inhibition binding with [3H]-NMS, CHO cell membranes; conditions: [3H]-NMS 0.2 nM, mean ± SEM of 3-4 experiments, read-out: pKi hM1 (converted)
T1 construct: expressed in transfected cells; host or cells: CHO cells, stably transfected; membrane fractions
T1 sequence (P11229 1-460): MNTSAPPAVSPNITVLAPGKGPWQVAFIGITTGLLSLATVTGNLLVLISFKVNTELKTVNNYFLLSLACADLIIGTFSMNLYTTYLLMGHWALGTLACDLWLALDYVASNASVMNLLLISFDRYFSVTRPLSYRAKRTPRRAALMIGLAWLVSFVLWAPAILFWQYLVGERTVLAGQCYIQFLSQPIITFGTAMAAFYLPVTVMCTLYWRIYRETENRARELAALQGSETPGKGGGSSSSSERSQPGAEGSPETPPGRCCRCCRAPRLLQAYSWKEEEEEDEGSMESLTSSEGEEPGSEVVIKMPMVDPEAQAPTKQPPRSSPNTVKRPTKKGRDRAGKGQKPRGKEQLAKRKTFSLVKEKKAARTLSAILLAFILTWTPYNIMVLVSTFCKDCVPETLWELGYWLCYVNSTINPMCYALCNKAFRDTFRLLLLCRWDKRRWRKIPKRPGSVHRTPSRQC
Description: (§1) All tested compounds were purchased from Merck KGaA (Darmstadt, Germany). The radioligand binding experiments were performed with membranes from Chinese Hamster Ovary (CHO) cells stably transfected with the five cloned human muscarinic receptor subtypes (hM1-5). Membrane fractions were prepared according to the protocol, which have been previously described; membranes were stored at −80 °C until use. Nonspecific binding was defined by the radioactivity bound in the presence of 10 µM atropine.
(§2) Aliquots of membranes (25–70 µg/mL) were added and incubated for 2 h at room temperature, filtered through UniFilter GF/B plates (PerkinElmer Life and Analytical Science, Monza, Italy) using a FilterMate cell harvester (PerkinElmer Life and Analytical Science, Monza, Italy). The filters were washed several times with ice-cold MilliQ water. Then, the plates were counted in a β-counter (TopCount NXT microplate scintillation counter, PerkinElmer Life and Analytical Science, Monza, Italy).
(§3) Data points from radioligand inhibition binding curve were fitted to models using nonlinear regression equation to determine inhibitor potency (IC50) estimates, which were then converted to Ki values as appropriate.
(§4) All the results are expressed as means ± SEM obtained from 3-4 independent experiments each one performed in duplicate.

hM2 muscarinic receptor = molecular target: T2, hM2 muscarinic receptor (Homo sapiens, UniProt P08172); assay: as above; conditions: [3H]-NMS 0.2 nM, mean ± SEM of 3-4 experiments, read-out: pKi hM2 (converted)
T2 construct: expressed in transfected cells; host or cells: CHO cells, stably transfected; membrane fractions
T2 sequence (P08172 1-466): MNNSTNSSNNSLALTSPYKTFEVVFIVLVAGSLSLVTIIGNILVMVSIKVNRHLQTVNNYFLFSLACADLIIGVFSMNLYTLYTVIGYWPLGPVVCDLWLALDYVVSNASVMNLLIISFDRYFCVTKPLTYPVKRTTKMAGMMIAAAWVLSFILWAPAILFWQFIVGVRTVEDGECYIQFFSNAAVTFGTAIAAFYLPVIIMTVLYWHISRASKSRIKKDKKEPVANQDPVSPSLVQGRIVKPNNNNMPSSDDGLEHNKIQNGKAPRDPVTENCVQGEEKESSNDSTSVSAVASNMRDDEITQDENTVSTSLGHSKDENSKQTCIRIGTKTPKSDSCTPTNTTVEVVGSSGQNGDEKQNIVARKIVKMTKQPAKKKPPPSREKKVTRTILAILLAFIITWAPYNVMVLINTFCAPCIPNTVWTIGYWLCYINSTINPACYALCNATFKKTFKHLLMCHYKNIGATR
Description: as §1, §2, §3, §4

hM3 muscarinic receptor = molecular target: T3, hM3 muscarinic receptor (Homo sapiens, UniProt P20309); assay: as above; conditions: [3H]-NMS 0.2 nM, mean ± SEM of 3-4 experiments, read-out: pKi hM3 (converted)
T3 construct: expressed in transfected cells; host or cells: CHO cells, stably transfected; membrane fractions
Description: as §1, §2, §3, §4

hM4 muscarinic receptor = molecular target: T4, hM4 muscarinic receptor (Homo sapiens, UniProt P08173); assay: as above; conditions: [3H]-NMS 0.2 nM, CHO membranes, mean ± SEM of 3-4 experiments; read-out: pKi hM4 (converted)
T4 construct: expressed in transfected cells; host or cells: CHO cells, stably transfected; membrane fractions
T4 sequence (P08173 1-479): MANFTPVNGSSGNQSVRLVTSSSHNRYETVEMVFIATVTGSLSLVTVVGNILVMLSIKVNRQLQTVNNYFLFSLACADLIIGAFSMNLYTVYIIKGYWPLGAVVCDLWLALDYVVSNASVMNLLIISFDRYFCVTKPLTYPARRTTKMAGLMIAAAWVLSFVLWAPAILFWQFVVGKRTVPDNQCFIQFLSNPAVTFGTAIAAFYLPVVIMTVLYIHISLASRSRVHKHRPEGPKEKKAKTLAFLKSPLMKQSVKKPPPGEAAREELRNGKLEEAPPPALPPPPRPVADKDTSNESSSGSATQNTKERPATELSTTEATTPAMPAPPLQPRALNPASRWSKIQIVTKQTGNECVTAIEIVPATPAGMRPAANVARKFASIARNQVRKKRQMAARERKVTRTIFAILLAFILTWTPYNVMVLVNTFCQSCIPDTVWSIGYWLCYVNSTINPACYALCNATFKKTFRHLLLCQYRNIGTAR
Description: as §1, §2, §3, §4

hM5 muscarinic receptor = molecular target: T5, hM5 muscarinic receptor (Homo sapiens, UniProt P08912); assay: as above; conditions: [3H]-NMS 0.2 nM, CHO membranes, mean ± SEM of 3-4 experiments; read-out: pKi hM5 (converted)
T5 construct: expressed in transfected cells; host or cells: CHO cells, stably transfected; membrane fractions
T5 sequence (P08912 1-532): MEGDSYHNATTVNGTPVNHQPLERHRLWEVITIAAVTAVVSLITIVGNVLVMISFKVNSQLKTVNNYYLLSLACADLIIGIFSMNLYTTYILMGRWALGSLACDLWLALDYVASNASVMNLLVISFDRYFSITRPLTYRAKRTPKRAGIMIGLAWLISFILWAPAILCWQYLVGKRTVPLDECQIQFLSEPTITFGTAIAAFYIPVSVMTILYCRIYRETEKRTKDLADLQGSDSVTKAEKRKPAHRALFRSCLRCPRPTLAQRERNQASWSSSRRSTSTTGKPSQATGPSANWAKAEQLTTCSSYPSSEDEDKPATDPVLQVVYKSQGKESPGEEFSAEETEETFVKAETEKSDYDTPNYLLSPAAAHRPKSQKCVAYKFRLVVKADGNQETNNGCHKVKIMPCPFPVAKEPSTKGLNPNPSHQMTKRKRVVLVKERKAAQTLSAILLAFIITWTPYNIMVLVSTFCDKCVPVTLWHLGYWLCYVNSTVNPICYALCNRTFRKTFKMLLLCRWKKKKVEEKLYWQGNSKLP
Description: as §1, §2, §3, §4

[1] = molecular target: T6, [3H]-NMS-occupied muscarinic hM2 subtype (Homo sapiens, UniProt P08172); assay: One point kinetic (off-rate) assay of [3H]-NMS dissociation; assay type: binding
T6 construct: expressed in transfected cells; host or cells: CHO cells, stably transfected; membrane fractions
T6 sequence (P08172 1-466): T2 sequence (P08172 1-466)
Description: as §1
(§5) Off-rate assays were performed as described elsewhere to estimate the affinity of the ligands for the [^3H]-NMS-occupied receptor (log Kocc). Briefly, a high concentration of membranes (about 0.1 mg/mL) was incubated with a high concentration of [^3H]-NMS (2 nM) for 60 min at room temperature (mix membrane). Next, 100 µL aliquots were distributed into polypropylene tubes that were empty or in a final volume of 1 mL binding buffer with 1 µM atropine alone and in the presence of a range of concentrations of tested compound (1 nM–0.1 mM).
(§6) The effect on the radioligand dissociation of each tested ligand was determined at 0 min and at one time point, which was chosen to be ca 2.5 dissociation half-lives of [^3H]-NMS alone from each subtype receptors. Later (80 min for hM1, 20 min for hM2 and 70 min for hM5), the samples were filtered and counted as previously reported. Non specific binding was measured as previously reported.
as §4

[2] = molecular target: T7, [3H]-NMS-occupied muscarinic hM1 subtype (Homo sapiens, UniProt P11229); assay: biochemical
T7 sequence (P11229 1-460): T1 sequence (P11229 1-460)
Description: as §1, §5, §6, §4

[3] = molecular target: T8, [3H]-NMS-occupied muscarinic hM5 subtype (Homo sapiens, UniProt P08912); assay: One point kinetic (off-rate) assay of [3H]-NMS dissociation; assay type: binding; conditions: read-out: log Kocc hM5 (converted)
T8 construct: expressed in transfected cells; host or cells: CHO cells, stably transfected; membrane fractions
T8 sequence (P08912 1-532): T5 sequence (P08912 1-532)
Description: as §1, §5, §6
Data from one-point kinetic experiments were analyzed in order to obtain estimates of the affinity of an allosteric ligand for the [^3H]-NMS occupied receptor (log Kocc) in a single step, using an equation introduced in GraphPad Prism 5.02 [33, 34].
as §4

[4] = molecular target: five human muscarinic receptors subtypes (hM1–hM5); assay: Equilibrium binding, summary statements over the five subtypes
Description: as §1, §2, §3, §4

T3 sequence (P20309 whole entry): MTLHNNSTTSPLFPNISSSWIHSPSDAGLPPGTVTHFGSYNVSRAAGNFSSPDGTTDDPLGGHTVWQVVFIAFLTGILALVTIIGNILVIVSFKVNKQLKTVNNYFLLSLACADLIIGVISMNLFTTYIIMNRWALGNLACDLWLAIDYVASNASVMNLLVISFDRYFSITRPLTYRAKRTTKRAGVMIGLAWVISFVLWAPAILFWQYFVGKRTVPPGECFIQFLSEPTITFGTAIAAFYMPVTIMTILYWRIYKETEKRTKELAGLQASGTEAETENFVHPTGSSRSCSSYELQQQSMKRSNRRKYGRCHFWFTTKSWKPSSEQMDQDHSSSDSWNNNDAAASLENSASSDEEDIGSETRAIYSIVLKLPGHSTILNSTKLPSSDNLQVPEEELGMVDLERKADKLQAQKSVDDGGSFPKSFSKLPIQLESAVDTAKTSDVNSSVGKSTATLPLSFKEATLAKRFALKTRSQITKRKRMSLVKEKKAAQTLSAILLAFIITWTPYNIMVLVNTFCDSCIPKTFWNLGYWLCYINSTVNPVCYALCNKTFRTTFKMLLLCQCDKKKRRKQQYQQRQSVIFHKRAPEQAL

Work on `C[N+](C)(CCCCCC[N+](C)(C)CCCN1C(=O)c2ccccc2C1=O)CCCN1C(=O)c2ccccc2C1=O` [W84] yielded a Ki (hM1 muscarinic receptor) of 0.891 µM, a Ki (hM2 muscarinic receptor) of 6.17 µM and a Ki (hM3 muscarinic receptor) of 5.5 µM. The Ki (hM4 muscarinic receptor) was 5.01 µM, the Ki (hM5 muscarinic receptor) was 9.12 µM and the “selectivity ratio hM2/hM1” value ([1]; from log Kocc values) was 4.6. The “selectivity ratio hM2/hM5” value ([1]; from log Kocc values) was 52.5, the Kd ([1]; read-out: Log Kocc hM2 (converted)) was 0.288 µM and the Kd [2] was 1.62 µM. The Kd [3] was 18.2 µM.

`[H]/N=C(\N/C(=N/[H])NCCCCCCNC(=N)NC(=N)Nc1ccc(Cl)cc1)Nc1ccc(Cl)cc1` [chlorhexidine] was tested, and the Ki (hM1 muscarinic receptor) was 0.501 µM, the Ki (hM3 muscarinic receptor) was 2.14 µM and the Ki (hM4 muscarinic receptor) was 1.62 µM. It also gave a Ki (hM5 muscarinic receptor) of 2.24 µM, a Kd [2] of 81.3 µM and a Kd [3] of 186 µM. For the same molecule, the “pKi values (muscarinic subtypes overall)” value [4] was “around 6”.

`N=C(N)c1ccc(OCCCCCOc2ccc(C(=N)N)cc2)cc1` [pentamidine] gave a Ki (hM4 muscarinic receptor) of 1.32 µM, a Ki (hM5 muscarinic receptor) of 1.74 µM and a Kd [3] of 182 µM.
